Results from patent US11447503B2, “Pyridine carbamates and their use as GLUN2B receptor modulators” (JANSSEN PHARMACEUTICA NV, priority 2019, dated 2022).

Target: human GluN1/GluN2B NMDA receptors (Homo sapiens, UniProt Q05586+Q13224)
Assay: Cell-based calcium flux (FLIPR) assay on cloned human GluN1/GluN2B ion channels expressed in mammalian cells
Settings: standard assay; glutamate ~EC40, 10 μM glycine; stable Tet-On cell line
Method in brief: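 Tet-On-induced stable cells expressing human GluN1/GluN2B, Calcium 5 dye. Compounds preincubated 5 min (agonist check), then glutamate at ~EC40 plus 10 μM glycine added for 5 min; Mg2+ and buffer composition differ between standard and HTS formats. FLIPR Tetra fluorescence normalised to control wells; (+)MK-801 as antagonist control.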

Sequence of human GluN1/GluN2B NMDA receptors (Q13224 27-1484, other chains not shown): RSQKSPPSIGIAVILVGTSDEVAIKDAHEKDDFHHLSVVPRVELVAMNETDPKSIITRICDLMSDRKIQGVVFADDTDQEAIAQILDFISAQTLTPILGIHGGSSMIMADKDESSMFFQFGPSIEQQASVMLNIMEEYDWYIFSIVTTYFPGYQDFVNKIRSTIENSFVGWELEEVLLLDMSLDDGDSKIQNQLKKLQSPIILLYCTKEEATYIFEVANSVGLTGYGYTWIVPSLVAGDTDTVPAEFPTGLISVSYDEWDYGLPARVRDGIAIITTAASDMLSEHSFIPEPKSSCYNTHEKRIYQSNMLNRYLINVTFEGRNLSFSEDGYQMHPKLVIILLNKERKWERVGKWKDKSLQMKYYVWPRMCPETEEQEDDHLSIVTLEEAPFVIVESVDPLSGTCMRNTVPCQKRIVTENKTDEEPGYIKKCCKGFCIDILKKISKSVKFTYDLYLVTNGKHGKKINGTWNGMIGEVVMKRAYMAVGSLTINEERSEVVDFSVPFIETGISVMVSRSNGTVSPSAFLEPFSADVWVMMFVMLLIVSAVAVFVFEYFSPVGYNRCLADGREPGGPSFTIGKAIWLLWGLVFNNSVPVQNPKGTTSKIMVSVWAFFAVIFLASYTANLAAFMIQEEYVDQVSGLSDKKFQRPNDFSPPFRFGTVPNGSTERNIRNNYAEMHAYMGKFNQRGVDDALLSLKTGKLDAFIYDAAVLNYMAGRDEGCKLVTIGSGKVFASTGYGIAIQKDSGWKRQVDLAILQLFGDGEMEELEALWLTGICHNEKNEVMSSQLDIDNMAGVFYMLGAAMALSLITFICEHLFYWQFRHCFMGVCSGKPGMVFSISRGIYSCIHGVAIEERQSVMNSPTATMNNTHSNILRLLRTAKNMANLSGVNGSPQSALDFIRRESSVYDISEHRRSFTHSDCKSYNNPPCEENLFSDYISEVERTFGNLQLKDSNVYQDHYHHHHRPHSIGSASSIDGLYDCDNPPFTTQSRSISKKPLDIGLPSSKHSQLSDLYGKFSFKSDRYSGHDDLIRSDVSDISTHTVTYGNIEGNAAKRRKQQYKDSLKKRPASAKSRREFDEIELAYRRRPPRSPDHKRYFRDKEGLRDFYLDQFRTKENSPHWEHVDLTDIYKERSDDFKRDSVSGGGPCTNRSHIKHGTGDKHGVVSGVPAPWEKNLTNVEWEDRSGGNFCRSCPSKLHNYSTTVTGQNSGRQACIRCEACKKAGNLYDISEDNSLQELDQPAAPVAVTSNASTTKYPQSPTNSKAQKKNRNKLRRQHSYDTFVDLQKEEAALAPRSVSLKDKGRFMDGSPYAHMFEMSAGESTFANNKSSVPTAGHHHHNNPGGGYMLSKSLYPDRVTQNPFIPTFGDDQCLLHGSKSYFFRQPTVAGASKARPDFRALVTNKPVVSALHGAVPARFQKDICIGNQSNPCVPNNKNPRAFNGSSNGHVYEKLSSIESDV

| SMILES | IC50 [nM] |
| --- | --- |
| COc1ncc(-c2ccc(F)c(C(C)(F)F)c2)cc1CN1CCOC1=O [Example 110, 3-[[5-[3-(1,1-Difluoroethyl)-4-fluoro-phenyl]-2-methoxy-3-pyridyl]methyl]oxazolidin-2-one] | 37 |
| COc1ncc(-c2ccc(F)c(OC(F)(F)F)c2)cc1CN1CCOC1=O [Example 113, 3-[[5-[4-Fluoro-3-(trifluoromethoxy)phenyl]-2-methoxy-3-pyridyl]methyl]oxazolidin-2-one] | 13 |
| COc1ncc(-c2cc(F)cc(C)c2F)cc1CN1CCOC1=O [Example 114, 3-[[5-(2,5-Difluoro-3-methyl-phenyl)-2-methoxy-3-pyridyl]methyl] oxazolidin-2-one] | 542 |
| COc1ncc(-c2ccc(F)c(OC(F)F)c2)cc1CN1C(=O)OC[C@H]1C [Example 118, (4R)-3-[[5-[3-(Difluoromethoxy)-4-fluoro-phenyl]-2-methoxy-3-pyridyl]methyl]-4-methyl-oxazolidin-2-one] | 26 |
| COc1ncc(-c2ccc(F)c(OC(F)F)c2)cc1CN1CCOC1=O [Example 119, 3-[[5-[3-(Difluoromethoxy)-4-fluoro-phenyl]-2-methoxy-3-pyridyl]methyl]oxazolidin-2-one] | 12 |
| COc1ncc(-c2ccc(F)c(C(F)F)c2)cc1CN1C(=O)OC[C@@H]1C [Example 120, (4S)-3-[[5-[3-(Difluoromethyl)-4-fluoro-phenyl]-2-methoxy-3-pyridyl]methyl]-4-methyl-oxazolidin-2-one] | 121 |
| COc1ncc(-c2ccc(F)c(C(F)F)c2)cc1CN1C(=O)OC[C@H]1C [Example 121, (4R)-3-[[5-[3-(Difluoromethyl)-4-fluoro-phenyl]-2-methoxy-3-pyridyl]methyl]-4-methyl-oxazolidin-2-one] | 21 |
| O=C1OCCCN1Cc1cc(-c2ccc(F)c(C(F)F)c2)cnc1C(F)F [Example 123, 3-[[2-(Difluoromethyl)-5-[3-(difluoromethyl)-4-fluoro-phenyl]-3-pyridyl]methyl]-1,3-oxazinan-2-one] | 63 |
| Cc1cc(-c2cnc(C(F)F)c(CN3CCCOC3=O)c2)ccc1F [Example 127, 3-[[2-(Difluoromethyl)-5-(4-fluoro-3-methyl-phenyl)-3-pyridyl]methyl]-1,3-oxazinan-2-one] | 276 |
| O=C1OCCCN1Cc1cc(-c2ccc(Cl)c(OC(F)F)c2)cnc1C(F)F [Example 129, 3-[[5-[4-Chloro-3-(difluoromethoxy)phenyl]-2-(difluoromethyl)-3-pyridyl]methyl]-1,3-oxazinan-2-one] | 59 |
| O=C1OCCN1Cc1cc(-c2ccc(Cl)c(OC(F)F)c2)cnc1C(F)F [Example 130, 3-[[5-[4-Chloro-3-(difluoromethoxy)phenyl]-2-(difluoromethyl)-3-pyridyl]methyl]oxazolidin-2-one] | 30 |
| C[C@@H]1COC(=O)N1Cc1cc(-c2ccc(F)c(C(F)F)c2)cnc1OC(F)F [Example 132, (4R)-3-[[2-(Difluoromethoxy)-5-[3-(difluoromethyl)-4-fluoro-phenyl]-3-pyridyl]methyl]-4-methyl-oxazolidin-2-one] | 176 |
| C[C@@H]1COC(=O)N1Cc1cc(-c2ccc(F)c(OC(F)F)c2)cnc1OC(F)F [Example 134, (4R)-3-[[-(Difluoromethoxy)-5-[3-(difluoromethoxy)-4-fluoro-phenyl]-3-pyridyl]methyl]-4-methyl-oxazolidin-2-one] | 61 |
| CC(F)(F)c1ncc(-c2ccc(F)c(C(F)F)c2)cc1CN1CCCOC1=O [Example 136, 3-[[2-(1,1-Difluoroethyl)-5-[3-(difluoromethyl)-4-fluoro-phenyl]-3-pyridyl]methyl]-1,3-oxazinan-2-one] | 99 |
| CC(F)(F)c1ncc(-c2ccc(F)c(OC(F)F)c2)cc1CN1CCCOC1=O [Example 137, 3-[[2-(1,1-Difluoroethyl)-5-[3-(difluoromethoxy)-4-fluoro-phenyl]-3-pyridyl]methyl]-1,3-oxazinan-2-one] | 76 |
| CC(F)(F)c1ncc(-c2ccc(F)c(C(F)F)c2)cc1CN1CC2(CCC2)OC1=O [Example 138, 6-[[2-(1,1-Difluoroethyl)-5-[3-(difluoromethyl)-4-fluoro-phenyl]-3-pyridyl]methyl]-8-oxa-6-azaspiro[3.4]octan-7-one] | 549 |
| C[C@H]1CN(Cc2cc(-c3ccc(F)c(C(F)F)c3)cnc2C(C)(F)F)C(=O)O1 [Example 140, (5S)-3-[[2-(1,1-Difluoroethyl)-5-[3-(difluoromethyl)-4-fluoro-phenyl]-3-pyridyl]methyl]-5-methyl-oxazolidin-2-one] | 111 |
| C[C@@H]1COC(=O)N1Cc1cc(-c2ccc(F)c(OC(F)F)c2)cnc1C(C)(F)F [Example 144, (4R)-3-[[2-(1,1-Difluoroethyl)-5-[3-(difluoromethoxy)-4-fluoro-phenyl]-3-pyridyl]methyl]-4-methyl-oxazolidin-2-one] | 157 |
| C[C@H]1COC(=O)N1Cc1cc(-c2ccc(F)c(OC(F)F)c2)cnc1C(C)(F)F [Example 145, (4S)-3-[[2-(1,1-Difluoroethyl)-5-[3-(difluoromethoxy)-4-fluoro-phenyl]-3-pyridyl]methyl]-4-methyl-oxazolidin-2-one] | 492 |

The next lines start with the values.

| IC50 [nM] | SMILES |
| --- | --- |
| 47 | COc1ncc(-c2cccc(C(C)(F)F)c2)cc1CN1CCOC1=O [Example 111, 3-[[5-[3-(1,1-Difluoroethyl)phenyl]-2-methoxy-3-pyridyl]methyl]oxazolidin-2-one] |
| 18 | COc1ncc(-c2cc(C)c(F)c(F)c2)cc1CN1CCOC1=O [Example 112, 3-[[5-(3,4-Difluoro-5-methyl-phenyl)-2-methoxy-3-pyridyl]methyl] oxazolidin-2-one] |
| 10 | COc1ncc(-c2ccc(Cl)c(C(F)F)c2)cc1CN1CCOC1=O [Example 115, 3-[[5-[4-Chloro-3-(difluoromethyl)phenyl]-2-methoxy-3-pyridyl]methyl]oxazolidin-2-one] |
| 18 | COc1ncc(-c2ccc(F)c(C)c2)cc1CN1CCOC1=O [Example 116, 3-[[5-(4-Fluoro-3-methyl-phenyl)-2-methoxy-3-pyridyl]methyl]oxazolidin-2-one] |
| 60 | COc1ncc(-c2ccc(F)c(OC(F)F)c2)cc1CN1C(=O)OC[C@@H]1C [Example 117, (4S)-3-[[5-[3-(Difluoromethoxy)-4-fluoro-phenyl]-2-methoxy-3-pyridyl]methyl]-4-methyl-oxazolidin-2-one] |
| 15 | COc1ncc(-c2ccc(F)c(C(F)F)c2)cc1CN1CCOC1=O [Example 122, 3-[[5-[3-(Difluoromethyl)-4-fluoro-phenyl]-2-methoxy-3-pyridyl]methyl]oxazolidin-2-one] |
| 56 | O=C1OCCN1Cc1cc(-c2ccc(F)c(C(F)F)c2)cnc1C(F)F [Example 124, 3-[[2-(Difluoromethyl)-5-[3-(difluoromethyl)-4-fluoro-phenyl]-3-pyridyl]methyl]oxazolidin-2-one] |
| 39 | O=C1OCCN1Cc1cc(-c2ccc(F)c(OC(F)F)c2)cnc1C(F)F [Example 125, 3-[[5-[3-(Difluoromethoxy)-4-fluoro-phenyl]-2-(difluoromethyl)-3-pyridyl]methyl]oxazolidin-2-one] |
| 19 | O=C1OCCCN1Cc1cc(-c2ccc(F)c(OC(F)F)c2)cnc1C(F)F [Example 126, 3-[[5-[3-(Difluoromethoxy)-4-fluoro-phenyl]-2-(difluoromethyl)-3-pyridyl]methyl]-1,3-oxazinan-2-one] |
| 204 | Cc1cc(-c2cnc(C(F)F)c(CN3CCOC3=O)c2)ccc1F [Example 128, 3-[[2-(Difluoromethyl)-5-(4-fluoro-3-methyl-phenyl)-3-pyridyl]methyl]oxazolidin-2-one] |
| 153 | O=C1OCCN1Cc1cc(-c2ccc(F)c(C(F)F)c2)cnc1OC(F)F [Example 131, 3-[[2-(Difluoromethoxy)-5-[3-(difluoromethyl)-4-fluoro-phenyl]-3-pyridyl]methyl]oxazolidin-2-one] |
| 76 | O=C1OCCN1Cc1cc(-c2ccc(F)c(OC(F)F)c2)cnc1OC(F)F [Example 133, 3-[[2-(Difluoromethoxy)-5-[3-(difluoromethoxy)-4-fluoro-phenyl]-3-pyridyl]methyl]oxazolidin-2-one] |
| 47 | CC(F)(F)c1ncc(-c2ccc(F)c(C(F)F)c2)cc1CN1CCOC1=O [Example 135, 3-[[2-(1,1-Difluoroethyl)-5-[3-(difluoromethyl)-4-fluoro-phenyl]-3-pyridyl]methyl]oxazolidin-2-one] |
| 134 | C[C@@H]1CN(Cc2cc(-c3ccc(F)c(C(F)F)c3)cnc2C(C)(F)F)C(=O)O1 [Example 139, (5R)-3-[[2-(1,1-Difluoroethyl)-5-[3-(difluoromethyl)-4-fluoro-phenyl]-3-pyridyl]methyl]-5-methyl-oxazolidin-2-one] |
| 245 | CC(F)(F)c1ncc(-c2ccc(F)c(C(F)F)c2)cc1CN1CC2(CC2)OC1=O [Example 141, 5-[[2-(1,1-Difluoroethyl)-5-[3-(difluoromethyl)-4-fluoro-phenyl]-3-pyridyl]methyl]-7-oxa-5-azaspiro[2.4]heptan-6-one] |
| 2000 | C[C@H]1COC(=O)N1Cc1cc(-c2ccc(F)c(C(F)F)c2)cnc1C(C)(F)F [Example 142, (4S)-3-[[2-(1,1-Difluoroethyl)-5-[3-(difluoromethyl)-4-fluoro-phenyl]-3-pyridyl]methyl]-4-methyl-oxazolidin-2-one] |
| 180 | C[C@@H]1COC(=O)N1Cc1cc(-c2ccc(F)c(C(F)F)c2)cnc1C(C)(F)F [Example 143, (4R)-3-[[2-(1,1-Difluoroethyl)-5-[3-(difluoromethyl)-4-fluoro-phenyl]-3-pyridyl]methyl]-4-methyl-oxazolidin-2-one] |
| 212 | CC(F)(F)c1ncc(-c2ccc(F)c(OC(F)F)c2)cc1CN1CC2(CC2)OC1=O [Example 146, 5-[[2-(1,1-Difluoroethyl)-5-[3-(difluoromethoxy)-4-fluoro-phenyl]-3-pyridyl]methyl]-7-oxa-5-azaspiro[2.4]heptan-6-one] |
